Results from ChEMBL document CHEMBL3352071, “Benzimidazoles: novel mycobacterial gyrase inhibitors from scaffold morphing” (ACS Med Chem Lett, 2014).
≈ marks a conversion by molar mass, not a printed value.

Columns and labels:
[1] = system: Mycobacterium tuberculosis; test: Antimicrobial activity against Mycobacterium tuberculosis H37Rv ATCC 27294; type: functional
[2] = Octanol-water partition coefficient, logD of the compound at pH 7.4 by shake-flask method; type: physicochemical
[3] = target: Voltage-gated inwardly rectifying potassium channel KCNH2 (Homo sapiens, UniProt Q12809)
Description: Inhibition of human ERG by electrophysiology assay

[4] = Inhibition of Mycobacterium tuberculosis H37Rv DNA gyrase A2B2 holoenzyme supercoiling activity using relaxed pBR322 substrate incubated for 90 mins by ethidium bromide staining based gel electrophoresis method
[5] = Solubility of the compound; type: physicochemical
[6] = Permeability from apical to basolateral side in human Caco2 cells; type: ADME, cell-based; settings: Caco-2, read-out: permeability
[7] = Permeability from basolateral to apical side in human Caco2 cells; type: ADME, cell-based; settings: Caco-2, read-out: permeability
[8] = Clearance in Wistar rat at 1 mg/kg, iv; type: ADME, organism-based; parameters: dose 1 mg/kg, route intravenous; settings: in vivo
[9] = Volume of distribution at steady state in Wistar rat at 1 mg/kg, iv; type: ADME, organism-based; parameters: dose 1 mg/kg, route intravenous; settings: in vivo, read-out: Vdss
[10] = Elimination half life in Wistar rat at 1 mg/kg, iv; type: ADME, organism-based; parameters: dose 1 mg/kg, route intravenous; settings: in vivo, read-out: beta t1/2 (converted)
[11] = AUC (0 to infinity) in Wistar rat at 1 mg/kg, iv; type: ADME, organism-based; parameters: time infinity, dose 1 mg/kg, route intravenous; settings: plasma
[12] = AUC (0 to infinity) in Wistar rat at 10 mg/kg, po; type: ADME, organism-based; parameters: time infinity, dose 10 mg/kg, route oral; settings: plasma
[13] = Oral bioavailability in Wistar rat at 10 mg/kg; type: ADME, organism-based; settings: in vivo
Cytochrome P450 1A2 = target: T1, Cytochrome P450 1A2 (Homo sapiens, UniProt P05177); test: Inhibition of CYP1A2 (unknown origin); type: ADME
T1 sequence (P05177 whole entry): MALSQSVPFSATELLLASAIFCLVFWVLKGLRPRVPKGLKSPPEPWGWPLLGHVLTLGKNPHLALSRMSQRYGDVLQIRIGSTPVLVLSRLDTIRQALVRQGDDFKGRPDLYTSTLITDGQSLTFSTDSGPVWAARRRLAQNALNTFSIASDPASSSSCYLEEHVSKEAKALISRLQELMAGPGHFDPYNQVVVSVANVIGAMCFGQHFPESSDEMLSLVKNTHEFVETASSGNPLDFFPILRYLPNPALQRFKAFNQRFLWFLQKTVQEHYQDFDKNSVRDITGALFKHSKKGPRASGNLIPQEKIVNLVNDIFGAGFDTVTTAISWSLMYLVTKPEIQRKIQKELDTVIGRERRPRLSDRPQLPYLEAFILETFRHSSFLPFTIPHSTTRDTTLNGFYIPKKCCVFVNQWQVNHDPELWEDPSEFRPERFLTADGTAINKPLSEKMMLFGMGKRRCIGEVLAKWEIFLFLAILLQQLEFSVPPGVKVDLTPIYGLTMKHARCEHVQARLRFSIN

Cytochrome P450 2C9 = Cytochrome P450 2C9 (Homo sapiens, UniProt P11712); test: Inhibition of CYP2C9 (unknown origin); type: ADME
Cytochrome P450 2C19 = Cytochrome P450 2C19 (Homo sapiens, UniProt P33261); test: Inhibition of CYP2C19 (unknown origin); type: ADME
Cytochrome P450 2D6 = Cytochrome P450 2D6 (Homo sapiens, UniProt P10635); test: Inhibition of CYP2D6 (unknown origin); type: ADME
Cytochrome P450 3A4 = Cytochrome P450 3A4 (Homo sapiens, UniProt P08684); test: Inhibition of CYP3A4 (unknown origin); type: ADME
DNA gyrase subunit B = DNA gyrase subunit B (Mycobacterium smegmatis, UniProt P0C559); test: Inhibition of Mycobacterium smegmatis GyrB ATPase activity; parameters: species or system Mycolicibacterium smegmatis
THP-1 = test: Cytotoxicity against human THP1 cells; type: cell-based

Chain of DNA gyrase subunit B (P0C559 whole entry): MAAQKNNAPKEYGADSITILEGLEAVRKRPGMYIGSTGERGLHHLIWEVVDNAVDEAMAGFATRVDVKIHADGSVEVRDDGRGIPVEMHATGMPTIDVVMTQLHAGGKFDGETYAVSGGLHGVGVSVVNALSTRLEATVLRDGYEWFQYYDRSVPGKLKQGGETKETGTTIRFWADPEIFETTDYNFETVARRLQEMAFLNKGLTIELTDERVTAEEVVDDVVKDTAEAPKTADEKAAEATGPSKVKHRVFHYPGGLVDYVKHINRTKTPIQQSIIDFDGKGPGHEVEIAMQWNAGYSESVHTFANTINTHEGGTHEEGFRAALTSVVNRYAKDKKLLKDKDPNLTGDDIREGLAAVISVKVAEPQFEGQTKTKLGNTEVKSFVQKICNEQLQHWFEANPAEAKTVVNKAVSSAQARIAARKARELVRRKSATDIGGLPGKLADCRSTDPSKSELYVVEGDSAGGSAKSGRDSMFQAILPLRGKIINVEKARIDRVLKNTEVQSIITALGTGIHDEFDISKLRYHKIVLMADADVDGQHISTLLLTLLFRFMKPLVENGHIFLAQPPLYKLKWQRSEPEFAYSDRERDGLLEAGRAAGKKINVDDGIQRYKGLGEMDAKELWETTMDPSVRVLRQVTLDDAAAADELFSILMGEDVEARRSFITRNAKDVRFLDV
Chain of Voltage-gated inwardly rectifying potassium channel KCNH2 (Q12809 whole entry): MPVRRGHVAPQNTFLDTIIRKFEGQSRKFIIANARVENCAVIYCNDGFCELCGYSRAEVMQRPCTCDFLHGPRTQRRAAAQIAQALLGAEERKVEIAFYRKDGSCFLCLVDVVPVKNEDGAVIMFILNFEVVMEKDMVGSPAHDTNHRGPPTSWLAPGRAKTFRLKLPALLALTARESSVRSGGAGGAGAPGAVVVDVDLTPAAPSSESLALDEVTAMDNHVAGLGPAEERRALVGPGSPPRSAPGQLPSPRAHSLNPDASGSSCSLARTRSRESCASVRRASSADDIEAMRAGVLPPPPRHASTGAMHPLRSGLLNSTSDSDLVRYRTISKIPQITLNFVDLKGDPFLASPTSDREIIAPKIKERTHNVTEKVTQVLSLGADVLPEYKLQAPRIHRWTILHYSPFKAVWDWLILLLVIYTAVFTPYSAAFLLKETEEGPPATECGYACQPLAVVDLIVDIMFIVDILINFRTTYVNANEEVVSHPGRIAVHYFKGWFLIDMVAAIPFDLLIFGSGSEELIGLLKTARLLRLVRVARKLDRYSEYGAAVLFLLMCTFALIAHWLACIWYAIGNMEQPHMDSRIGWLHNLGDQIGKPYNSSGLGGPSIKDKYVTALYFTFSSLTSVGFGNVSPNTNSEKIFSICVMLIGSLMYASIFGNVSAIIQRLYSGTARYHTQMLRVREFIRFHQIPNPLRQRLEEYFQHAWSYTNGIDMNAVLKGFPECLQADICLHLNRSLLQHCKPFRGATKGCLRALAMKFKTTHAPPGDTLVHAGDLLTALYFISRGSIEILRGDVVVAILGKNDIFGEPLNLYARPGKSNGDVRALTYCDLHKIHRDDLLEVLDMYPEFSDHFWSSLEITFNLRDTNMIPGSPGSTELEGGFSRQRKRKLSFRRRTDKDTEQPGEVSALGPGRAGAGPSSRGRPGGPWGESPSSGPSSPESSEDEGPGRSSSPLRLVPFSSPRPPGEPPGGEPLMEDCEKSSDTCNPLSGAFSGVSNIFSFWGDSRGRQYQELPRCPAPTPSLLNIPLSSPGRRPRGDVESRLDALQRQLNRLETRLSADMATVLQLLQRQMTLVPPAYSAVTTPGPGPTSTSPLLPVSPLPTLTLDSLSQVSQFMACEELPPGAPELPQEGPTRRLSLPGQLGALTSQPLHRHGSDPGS
Chain of Cytochrome P450 2D6 (P10635 whole entry): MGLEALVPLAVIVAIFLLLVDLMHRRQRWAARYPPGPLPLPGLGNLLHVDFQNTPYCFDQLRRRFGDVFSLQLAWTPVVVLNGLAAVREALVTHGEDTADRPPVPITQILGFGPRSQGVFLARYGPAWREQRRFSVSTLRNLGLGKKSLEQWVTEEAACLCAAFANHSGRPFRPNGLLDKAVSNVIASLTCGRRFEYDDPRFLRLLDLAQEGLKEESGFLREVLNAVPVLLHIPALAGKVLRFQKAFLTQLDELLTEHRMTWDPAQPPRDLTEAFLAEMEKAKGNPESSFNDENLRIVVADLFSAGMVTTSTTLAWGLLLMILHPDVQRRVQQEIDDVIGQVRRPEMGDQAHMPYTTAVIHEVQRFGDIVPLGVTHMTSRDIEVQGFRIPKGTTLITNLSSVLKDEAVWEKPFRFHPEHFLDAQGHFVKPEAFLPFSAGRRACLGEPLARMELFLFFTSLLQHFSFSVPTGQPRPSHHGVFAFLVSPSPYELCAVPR
Chain of Cytochrome P450 2C9 (P11712 whole entry): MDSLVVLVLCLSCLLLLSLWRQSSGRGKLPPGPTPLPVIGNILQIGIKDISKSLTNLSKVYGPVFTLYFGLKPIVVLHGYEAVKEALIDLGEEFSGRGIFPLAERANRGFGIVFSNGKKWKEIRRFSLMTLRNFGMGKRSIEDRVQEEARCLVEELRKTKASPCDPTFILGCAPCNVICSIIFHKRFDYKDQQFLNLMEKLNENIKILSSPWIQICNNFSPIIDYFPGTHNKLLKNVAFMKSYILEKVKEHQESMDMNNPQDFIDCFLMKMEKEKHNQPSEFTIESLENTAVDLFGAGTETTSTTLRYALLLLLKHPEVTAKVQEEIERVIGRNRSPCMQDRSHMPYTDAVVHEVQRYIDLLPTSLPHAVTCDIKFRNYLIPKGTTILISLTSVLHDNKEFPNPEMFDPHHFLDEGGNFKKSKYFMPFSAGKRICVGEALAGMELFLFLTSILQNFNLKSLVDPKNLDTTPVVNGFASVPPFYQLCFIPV
Chain of Cytochrome P450 2C19 (P33261 whole entry): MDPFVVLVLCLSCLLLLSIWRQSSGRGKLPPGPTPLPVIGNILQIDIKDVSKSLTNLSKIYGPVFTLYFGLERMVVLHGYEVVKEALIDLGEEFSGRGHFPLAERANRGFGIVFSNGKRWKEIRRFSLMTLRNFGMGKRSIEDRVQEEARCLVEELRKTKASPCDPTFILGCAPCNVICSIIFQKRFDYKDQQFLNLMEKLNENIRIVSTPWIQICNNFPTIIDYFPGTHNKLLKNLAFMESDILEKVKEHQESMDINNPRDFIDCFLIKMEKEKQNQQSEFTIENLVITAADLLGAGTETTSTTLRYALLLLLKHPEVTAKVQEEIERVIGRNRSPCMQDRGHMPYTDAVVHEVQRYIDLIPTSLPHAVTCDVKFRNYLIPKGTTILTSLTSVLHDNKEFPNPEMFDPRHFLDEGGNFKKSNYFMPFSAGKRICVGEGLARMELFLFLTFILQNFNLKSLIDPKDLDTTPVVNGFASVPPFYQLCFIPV
Chain of Cytochrome P450 3A4 (P08684 whole entry): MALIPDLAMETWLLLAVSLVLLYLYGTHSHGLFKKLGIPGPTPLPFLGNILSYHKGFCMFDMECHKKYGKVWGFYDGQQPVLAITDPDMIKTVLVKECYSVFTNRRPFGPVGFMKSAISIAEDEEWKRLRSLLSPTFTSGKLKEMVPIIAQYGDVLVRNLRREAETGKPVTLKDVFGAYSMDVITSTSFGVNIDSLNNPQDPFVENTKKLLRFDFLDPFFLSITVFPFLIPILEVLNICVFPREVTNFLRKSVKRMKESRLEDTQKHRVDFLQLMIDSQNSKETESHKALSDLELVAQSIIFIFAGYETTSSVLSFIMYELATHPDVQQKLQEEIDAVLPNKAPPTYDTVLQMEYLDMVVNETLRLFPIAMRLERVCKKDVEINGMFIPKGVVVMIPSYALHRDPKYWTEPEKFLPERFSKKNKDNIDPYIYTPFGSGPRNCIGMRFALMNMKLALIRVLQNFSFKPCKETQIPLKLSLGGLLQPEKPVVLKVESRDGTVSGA

Row | Compound | MIC [1] [µM] | logD [2] | IC50 [3] [µM] | further results
1 | COc1cnc2ccc(=O)n(CCN3CCN(c4nc5ccccc5[nH]4)CC3)c2c1 | 100 (≈ 40.4 µg/mL) | 2.4 | 7 | 
2 | O=c1ccc2ncc(F)cc2n1CCN1CCC(c2nc3cc(C(F)(F)F)ccc3[nH]2)CC1 | 0.78 (≈ 0.358 µg/mL) |  |  | 
3 | COc1cnc2ccc(=O)n(CCN3CCC(c4nc5cc(Cl)c(C)cc5[nH]4)CC3)c2c1 | 0.13 (≈ 0.0588 µg/mL) | 3.8 |  | 
4 | COc1cnc2ncc(=O)n(CCN3CCC(c4nc5cc(Cl)c(C)cc5[nH]4)CC3)c2c1 | 0.39 (≈ 0.177 µg/mL) | 3.5 | 10 | 
5 | N#Cc1ccc2[nH]c(C3CCN(CCn4c(=O)ccc5ncc(Oc6cccnc6)cc54)CC3)nc2c1 | 3.13 (≈ 1.54 µg/mL) | 2.9 |  | 
6 | NS(=O)(=O)c1ccc(Oc2cnc3ccc(=O)n(CCN4CCC(c5nc6cc(C(F)(F)F)ccc6[nH]5)CC4)c3c2)cc1 | 0.19 (≈ 0.116 µg/mL) | 2.4 | > 33 | IC50 [4]: 1.9 µM
7 | COc1cnc2ccc(=O)n(CCN3CCC(c4nc5cc(C#N)c(C)cc5[nH]4)CC3)c2c1 | 0.19 (≈ 0.0841 µg/mL) | 2.8 |  | IC50 [4]: 4.3 µM; solubility [5]: 2.1 µM (≈ 0.929 µg/mL); Papp A→B [6]: 0.4 ×10⁻⁶ cm/s; Papp B→A [7]: 28.1 ×10⁻⁶ cm/s; clearance [8]: 35.5 mL/min/kg; Vd [9]: 1.01 L/kg; half-life [10]: 36 min; AUC(0-inf) [11]: 470 ng·h/mL; AUC(0-inf) [12]: 20 ng·h/mL; bioavailability [13]: 1.1%; IC50 (Cytochrome P450 1A2): > 30 µM; IC50 (Cytochrome P450 2C9): > 30 µM; IC50 (Cytochrome P450 2C19): > 30 µM; IC50 (Cytochrome P450 2D6): 28 µM; IC50 (Cytochrome P450 3A4): 9.4 µM
8 | COc1ccc2ncc(=O)n(CCN3CCC(c4nc5cc(Cl)c(C)cc5[nH]4)CC3)c2c1 | 0.13 (≈ 0.0588 µg/mL) |  |  | 
9 | N#Cc1ccc2ccc(=O)n(CCN3CCC(NCc4ccc5c(n4)NC(=O)CO5)CC3)c2c1 | 0.19 (≈ 0.0871 µg/mL) |  |  | IC50 [4]: 0.11 µM
10 | COc1cnc2ccc(=O)n(CCN3CCC(c4nc5cc(C(F)(F)F)ccc5[nH]4)CC3)c2c1 | 0.19 (≈ 0.0896 µg/mL) | 4 |  | IC50 (DNA gyrase subunit B): > 100 µM; IC50 (THP-1): > 50 µM
11 | Cc1cc2[nH]c(C3CCN(CCn4c(=O)ccc5ncc(F)cc54)CC3)nc2cc1C#N | 3.15 (≈ 1.36 µg/mL) |  |  | 
12 | COc1cnc2ccc(=O)n(CCN3CCC(c4c[nH]c5ccc(C#N)cc45)CC3)c2c1 | 100 (≈ 42.8 µg/mL) | 3.3 | 2 | IC50 [4]: > 50 µM; IC50 (DNA gyrase subunit B): > 100 µM; IC50 (THP-1): > 50 µM
13 | COc1c(N2C[C@@H]3CCCN[C@@H]3C2)c(F)cc2c(=O)c(C(=O)O)cn(C3CC3)c12 [MOXIFLOXACIN] | 0.13 (≈ 0.0522 µg/mL) |  |  | 
14 | COc1cnc2ccc(=O)n(CCN3CCC(C4C(=O)Nc5ccc(Cl)cc54)CC3)c2c1 (stereo not drawn) | 100 (≈ 45.3 µg/mL) | 2.8 | 4.8 | IC50 [4]: > 50 µM; IC50 (DNA gyrase subunit B): > 100 µM; IC50 (THP-1): > 50 µM
15 | COc1cnc2ccc(=O)n(CCN3CCN(c4nc5cc(C#N)c(C)cc5[nH]4)CC3)c2c1 | 0.78 (≈ 0.346 µg/mL) | 3.2 | > 33 | solubility [5]: 3 µM (≈ 1.33 µg/mL); Papp A→B [6]: 1.5 ×10⁻⁶ cm/s; Papp B→A [7]: 24.1 ×10⁻⁶ cm/s; clearance [8]: 32.2 mL/min/kg; Vd [9]: 1.54 L/kg; half-life [10]: 48 min; AUC(0-inf) [11]: 520 ng·h/mL; AUC(0-inf) [12]: 160 ng·h/mL; bioavailability [13]: 3.3%; IC50 (Cytochrome P450 1A2): > 30 µM; IC50 (Cytochrome P450 2C9): > 30 µM; IC50 (Cytochrome P450 2C19): > 30 µM; IC50 (Cytochrome P450 2D6): 20 µM; IC50 (Cytochrome P450 3A4): 20 µM
16 | O=c1ccc2ncc(F)cc2n1CCN1CCC(NCc2ccc(C(F)(F)F)nc2)CC1 | 0.19 (≈ 0.0854 µg/mL) |  |  | IC50 [4]: 0.25 µM
17 | O=C(O)c1cn(C2CC2)c2cc(N3CCNCC3)c(F)cc2c1=O [CIPROFLOXACIN] | 0.5 (≈ 0.166 µg/mL) |  |  | 
18 | COc1cnc2ccc(=O)n(CCN3CCC(c4nc5cc(C#N)ccc5[nH]4)CC3)c2c1 | 3.15 (≈ 1.35 µg/mL) | 2.4 |  | 
19 | COc1cnc2ccc(=O)n(CCN3CCC(c4nc5cc(Cl)c(F)cc5[nH]4)CC3)c2c1 | 0.06 (≈ 0.0274 µg/mL) | 4 |  | IC50 [4]: 2 µM
20 | COc1cnc2ccc(=O)n(CCN3CCC(c4c[nH]c5cc(C(F)(F)F)ccc45)CC3)c2c1 | 50 (≈ 23.5 µg/mL) | 4 |  | IC50 [4]: > 50 µM; IC50 (DNA gyrase subunit B): > 100 µM; IC50 (THP-1): > 50 µM
21 | Cc1cc2[nH]c(C3CCN(CCn4c(=O)ccc5ncc(F)cc54)CC3)nc2cc1Cl | 1.56 (≈ 0.686 µg/mL) | 3.7 | 1.2 | 
22 | COc1cnc2ccc(=O)n(CCN3CCC(c4nc5cc(Cl)ccc5[nH]4)CC3)c2c1 | 0.25 (≈ 0.109 µg/mL) | 3.6 |  | 
23 | COc1cnc2ccc(=O)n(CCN3CCN(c4nc5cc(C(F)(F)F)ccc5[nH]4)CC3)c2c1 | 3.13 (≈ 1.48 µg/mL) | 2.8 | 10 | 
24 | N#Cc1ccc2[nH]c(C3CCN(CCn4c(=O)ccc5ncc(Oc6ccc(S(N)(=O)=O)cc6)cc54)CC3)nc2c1 | 0.78 (≈ 0.444 µg/mL) | 2.2 | > 33 | 
25 | N#Cc1ccc2[nH]c(C3CCN(CCn4c(=O)ccc5ncc(F)cc54)CC3)nc2c1 | 50 (≈ 20.8 µg/mL) |  |  | 
26 | O=c1ccc2ncc(F)cc2n1CCN1CCN(c2nc3cc(C(F)(F)F)ccc3[nH]2)CC1 | 15 (≈ 6.91 µg/mL) | 3.7 |  | 
27 | NNC(=O)c1ccncc1 [ISONIAZID] | 0.06 (≈ 0.00823 µg/mL) |  |  | 
